Calls of active or inactive are those of the source. How the calls were made is not given here.
System: CCRIS mutagenicity, Ames/micronucleus/aberration tests
Assay: CCRIS mutagenicity studies
[1] = Test System: AMES SALMONELLA TYPHIMURIUM, Strain/Indicator: TA98, Metabolic Activation: NONE, Method: STANDARD PLATE
[2] = Test System: AMES SALMONELLA TYPHIMURIUM, Strain/Indicator: TA100, Metabolic Activation: NONE, Method: STANDARD PLATE

Measured: mutagenic call

CC(C)CCON=O
inactive: End Point: IN VITRO CHROMOSOMAL ABERRATIONS, Test System: CHINESE HAMSTER OVARY CELLS, Metabolic Activation: RAT, LIVER, S-9, AROCLOR 1254 inactive; negative | Test System: AMES SALMONELLA TYPHIMURIUM, Strain/Indicator: TA98, Metabolic Activation: HAMSTER, LIVER, S-9, AROCLOR 1254, Method: STANDARD PLATE inactive; negative | [1] inactive; negative | Test System: AMES SALMONELLA TYPHIMURIUM, Strain/Indicator: TA98, Metabolic Activation: RAT, LIVER, S-9, AROCLOR 1254, Method: STANDARD PLATE inactive; negative | Test System: AMES SALMONELLA TYPHIMURIUM, Strain/Indicator: TA100, Metabolic Activation: HAMSTER, LIVER, S-9, AROCLOR 1254, Method: STANDARD PLATE inactive; negative | [2] inactive; negative | Test System: AMES SALMONELLA TYPHIMURIUM, Strain/Indicator: TA100, Metabolic Activation: RAT, LIVER, S-9, AROCLOR 1254, Method: STANDARD PLATE inactive; negative | Test System: AMES SALMONELLA TYPHIMURIUM, Strain/Indicator: TA1537, Metabolic Activation: HAMSTER, LIVER, S-9, AROCLOR 1254, Method: STANDARD PLATE inactive; negative | Test System: AMES SALMONELLA TYPHIMURIUM, Strain/Indicator: TA1537, Metabolic Activation: NONE, Method: STANDARD PLATE inactive; negative | Test System: AMES SALMONELLA TYPHIMURIUM, Strain/Indicator: TA1537, Metabolic Activation: RAT, LIVER, S-9, AROCLOR 1254, Method: STANDARD PLATE inactive; negative
active: End Point: IN VITRO CHROMOSOMAL ABERRATIONS, Test System: CHINESE HAMSTER OVARY CELLS, Metabolic Activation: NONE active; positive | Test System: AMES SALMONELLA TYPHIMURIUM, Strain/Indicator: TA1535, Metabolic Activation: HAMSTER, LIVER, S-9, AROCLOR 1254, Method: STANDARD PLATE active; positive | Test System: AMES SALMONELLA TYPHIMURIUM, Strain/Indicator: TA1535, Metabolic Activation: NONE, Method: STANDARD PLATE active; positive | Test System: AMES SALMONELLA TYPHIMURIUM, Strain/Indicator: TA1535, Metabolic Activation: RAT, LIVER, S-9, AROCLOR 1254, Method: STANDARD PLATE active; positive | Test System: MOUSE LYMPHOMA, Strain/Indicator: L5178Y (TK+/TK-), Metabolic Activation: NONE, Method: SUSPENSION/PLATE active; positive | Test System: MOUSE LYMPHOMA, Strain/Indicator: L5178Y (TK+/TK-), Metabolic Activation: RAT, LIVER, S-9, AROCLOR 1254, Method: SUSPENSION/PLATE active; positive

Cn1c(N)nc2cc3ccccc3cc21
active: Test System: AMES SALMONELLA TYPHIMURIUM, Strain/Indicator: TA98, Metabolic Activation: RAT, LIVER, S-9, AROCLOR 1254A, Method: STANDARD PLATE active; positive | Test System: AMES SALMONELLA TYPHIMURIUM, Strain/Indicator: YG1024, Metabolic Activation: RAT, LIVER, S-9, AROCLOR 1254A, Method: STANDARD PLATE active; positive

Nc1cc(N)c(N=Nc2ccc(S(=O)(=O)O)cc2)cc1N=Nc1ccc(-c2ccc(N=Nc3ccc(C(=O)O)c(O)c3)cc2)cc1
active: Test System: AMES SALMONELLA TYPHIMURIUM, Strain/Indicator: TA98, Metabolic Activation: HAMSTER, LIVER, S-9, Method: PREINCUBATION (PRIVAL METHOD) active; positive

O=[N+]([O-])c1ccc2ccc3cc4c(c5ccc1c2c35)CCCC4O (stereo not drawn)
active: [1] active; positive

CCCCCC(=O)Cc1cc(O)cc2c1C(=O)Oc1cc(O)c(C(=O)O)c(CCCCC)c1O2
inactive: Test System: AMES SALMONELLA TYPHIMURIUM, Strain/Indicator: TA98, Metabolic Activation: NONE, Method: PREINCUBATION inactive; negative | [1] inactive; negative | Test System: AMES SALMONELLA TYPHIMURIUM, Strain/Indicator: TA98, Metabolic Activation: RAT, LIVER, S-9, Method: PREINCUBATION inactive; negative | Test System: AMES SALMONELLA TYPHIMURIUM, Strain/Indicator: TA98, Metabolic Activation: RAT, LIVER, S-9, Method: STANDARD PLATE inactive; negative | Test System: AMES SALMONELLA TYPHIMURIUM, Strain/Indicator: TA100, Metabolic Activation: NONE, Method: PREINCUBATION inactive; negative | [2] inactive; negative | Test System: AMES SALMONELLA TYPHIMURIUM, Strain/Indicator: TA100, Metabolic Activation: RAT, LIVER, S-9, Method: PREINCUBATION inactive; negative | Test System: AMES SALMONELLA TYPHIMURIUM, Strain/Indicator: TA100, Metabolic Activation: RAT, LIVER, S-9, Method: STANDARD PLATE inactive; negative

From PubChem BioAssay AID1259407 (Chemical Carcinogenesis Research Information System (CCRIS), 2018)
